The text below walks through data of PMC9372051, “Biological evaluation, molecular modeling and dynamics simulation of phenanthrenes isolated from Bletilla striata as butyrylcholinesterase inhibitors” (Scientific Reports, 2022).

One test concerns the target AChE from electric eel (Electrophorus electricus, UniProt O42275). Description: biochemical. Conditions: read-out: % of inhibition at 25 μg/mL AChE.
Another test deals with BChE from equine serum (Equus caballus, UniProt P81908). Description: biochemical. The test is classed as biochemical. Conditions: for inhibition at 25 µg/mL: read-out: % of inhibition at 25 μg/mL BChE; for BChE inhibition described in words: structure-activity discussion.
Another test deals with BChE (Equus caballus, UniProt P81908). The test can be described thus: Kinetic characterization of BChE inhibition (Lineweaver–Burk plots, secondary plots). The test is classed as biochemical, equine. Conditions: for Mode of BChE inhibition: Lineweaver–Burk plots; for Ki: estimated by secondary plots of Lineweaver–Burk plots, substrate BTCI. The protocol:
[…]. Five increasing concentrations of BTCI as a substrate in the presence of three different concentrations of compound were used in the kinetic measurement. The concentrations of the enzyme and DNTB used in the determination are 0.226 U/mL and 3 mM respectively. The inhibition constants (Ki) of the inhibitors were determined by the secondary plots which constructed using the slopes of the Lineweaver–Burk plots.

SMILES strings stand for the structures. Where two headings read alike, the source gives them in different places.

AChE from electric eel, sequence (O42275 24-633): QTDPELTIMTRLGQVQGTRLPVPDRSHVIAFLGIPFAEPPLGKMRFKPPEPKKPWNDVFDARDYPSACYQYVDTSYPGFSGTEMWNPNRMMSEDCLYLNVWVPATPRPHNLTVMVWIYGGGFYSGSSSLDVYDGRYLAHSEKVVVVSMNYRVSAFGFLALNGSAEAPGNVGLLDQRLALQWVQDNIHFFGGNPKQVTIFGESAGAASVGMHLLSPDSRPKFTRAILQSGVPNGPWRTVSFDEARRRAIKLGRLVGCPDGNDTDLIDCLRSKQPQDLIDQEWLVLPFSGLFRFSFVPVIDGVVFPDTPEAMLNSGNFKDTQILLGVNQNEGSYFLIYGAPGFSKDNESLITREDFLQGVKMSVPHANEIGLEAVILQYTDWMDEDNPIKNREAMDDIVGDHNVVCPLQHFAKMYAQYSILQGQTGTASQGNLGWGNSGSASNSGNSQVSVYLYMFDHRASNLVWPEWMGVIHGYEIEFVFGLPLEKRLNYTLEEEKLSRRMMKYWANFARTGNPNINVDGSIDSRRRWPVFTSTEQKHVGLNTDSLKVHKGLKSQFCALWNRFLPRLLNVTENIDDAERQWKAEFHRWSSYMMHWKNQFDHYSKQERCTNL
BChE, sequence (P81908 whole entry): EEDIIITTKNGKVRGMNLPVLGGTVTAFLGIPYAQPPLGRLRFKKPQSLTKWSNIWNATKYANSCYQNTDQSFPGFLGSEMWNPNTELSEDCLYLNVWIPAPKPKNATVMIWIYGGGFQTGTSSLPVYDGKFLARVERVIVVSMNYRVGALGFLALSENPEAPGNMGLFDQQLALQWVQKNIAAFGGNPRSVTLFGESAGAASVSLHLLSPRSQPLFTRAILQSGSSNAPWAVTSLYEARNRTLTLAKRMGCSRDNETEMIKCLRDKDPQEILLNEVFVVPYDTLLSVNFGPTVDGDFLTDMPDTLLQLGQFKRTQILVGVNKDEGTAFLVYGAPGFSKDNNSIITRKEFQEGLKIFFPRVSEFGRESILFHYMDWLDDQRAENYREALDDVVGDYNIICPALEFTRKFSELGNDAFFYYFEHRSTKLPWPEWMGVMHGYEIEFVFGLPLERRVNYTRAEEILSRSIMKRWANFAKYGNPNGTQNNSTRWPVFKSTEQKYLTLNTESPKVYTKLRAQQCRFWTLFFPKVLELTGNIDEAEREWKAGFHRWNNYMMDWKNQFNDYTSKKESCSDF
BChE from equine serum, sequence (P81908 whole entry): as above

Usually IC50 stands for the midpoint of a concentration-inhibition curve. Lower therefore signals higher potency. Regarding `COc1cc(Oc2c(O)cc(OC)c3c2CCc2cc(O)ccc2-3)cc2c1-c1ccc(O)cc1CC2` [Compound 15, blestrin A], the inhibition at 25 µg/mL on AChE from electric eel was 8.4 ± 3.1%. Further, at BChE from equine serum, the Selectivity ratio is given as > 2.9 and the inhibition at 25 µg/mL was found to be 64 ± 2.6%. The same molecule gave a half-inhibitory concentration (IC50) on BChE from equine serum (mean ± SD of three experiments) of 17.9 ± 4.7 µM.
As for `COc1cc([C@@H]2Oc3cc4c(cc3[C@H]2CO)-c2c(cc(O)cc2OC)CC4)ccc1O` [Compound 18, bletilol D], the inhibition at 25 µg/mL is 5.7 ± 2.8% at AChE from electric eel and 31.6 ± 2.8% at BChE from equine serum.
For the molecule `COc1c(Cc2ccc(O)cc2)c(O)c(Cc2ccc(O)cc2)c2c1-c1ccc(O)cc1CC2` [Compound 11, 2,7-dihydroxy-1,3-bi(p-hydroxybenzyl)-4-methoxy-9,10-dihydrophenanthrene], on AChE from electric eel, the inhibition at 25 µg/mL worked out at 20.1 ± 3.5%. Moreover, at BChE from equine serum, the Selectivity ratio is recorded as > 1.2 and the inhibition at 25 µg/mL came out at 53.1 ± 1.2%. This molecule showed a 50% inhibitory concentration (IC50) against BChE from equine serum (mean ± SD of three experiments) of 44.6 ± 4.1 µM.
Regarding `COc1cc(O)c(Cc2ccc(O)cc2)c(CCc2cccc(O)c2)c1` [Compound 4, isoarundinin II], the inhibition at 25 µg/mL on AChE from electric eel was found to be 0.9 ± 0.8%; on BChE from equine serum, 39.3 ± 2.3%.
For the molecule `COc1cccc(CCc2cc(O)cc(OC)c2Cc2ccc(O)cc2)c1` [Compound 2, bulbocol], the inhibition at 25 µg/mL on AChE from electric eel came out at 16.3 ± 3.8%. Besides, at BChE from equine serum, the Selectivity ratio is > 2.1 and the inhibition at 25 µg/mL amounted to 67.7 ± 0.3%. At BChE from equine serum (mean ± SD of three experiments), the IC50 was 33.5 ± 3.7 µM.
By Ki is commonly meant a measure of affinity in units of concentration, obtained from inhibition or displacement. For `COc1cc(O)c(Cc2ccc(O)cc2)c2ccc3c(Cc4ccc(O)cc4)c(O)ccc3c12` [Compound 12, 1,8-bis(4-hydroxybenzyl)-4-methoxyphenanthrene-2,7-diol], the inhibition at 25 µg/mL on AChE from electric eel amounted to 16.1 ± 5%. In addition, on BChE from equine serum, the Selectivity ratio was > 23.1 and the inhibition at 25 µg/mL was found to be 95.4 ± 0.3%. The IC50 on BChE from equine serum (mean ± SD of three experiments) came out at 2.3 ± 0.4 µM. On BChE, the “Mode of BChE inhibition” value is on record as “non-competitive” and the Ki is 6.6 µM.
Regarding `COc1cc(C2COc3cc(OC)c4c(c3C2O)CCc2cc(O)ccc2-4)ccc1O` (stereo not shown) [Compound 17, shanciol F], the inhibition at 25 µg/mL was found to be 5.5 ± 1.8% on AChE from electric eel and 21.8 ± 3.1% at BChE from equine serum.
Regarding `COc1cc(Oc2c(O)cc(OC)c3c2ccc2cc(O)ccc23)cc2c1-c1ccc(O)cc1CC2` [Compound 16, blestrin C], on AChE from electric eel, the inhibition at 25 µg/mL amounted to 4.9 ± 3.2%. Besides, at BChE from equine serum, the Selectivity ratio is recorded as > 4.3 and the inhibition at 25 µg/mL worked out at 64.3 ± 2.4%. The molecule also returned an IC50 against BChE from equine serum (mean ± SD of three experiments) of 12.1 ± 3.4 µM.
For `COc1ccc2c(ccc3c(Cc4ccc(O)cc4)c(O)cc(OC)c32)c1O` [Compound 6, 1-(p-hydroxybenzyl)-4,7-dimethoxyphenanthrene-2,8-diol], the inhibition at 25 µg/mL at AChE from electric eel is 20.4 ± 4.5%. In addition, on BChE from equine serum, the Selectivity ratio is > 9.5 and the inhibition at 25 µg/mL came out at 85.2 ± 2.9%. For the same molecule, the midpoint of inhibition against BChE from equine serum (mean ± SD of three experiments), the IC50, lay at 6.4 ± 0.2 µM. On BChE, the “Mode of BChE inhibition” value was “mixed-type” and the inhibitory constant (Ki) is 14 µM.
As for `COc1cc(O)cc(/C=C\c2cccc(O)c2)c1` [Compound 21, pholidotol D], the inhibition at 25 µg/mL at AChE from electric eel worked out at 5.2 ± 3.2%; on BChE from equine serum, 29.1 ± 1.3%.
For the molecule `COc1c(O)cc2ccc3c(Cc4ccc(O)cc4)c(O)ccc3c2c1OC` [Compound 8, bleformin A], the inhibition at 25 µg/mL at AChE from electric eel stood at 18.5 ± 1.7%. Moreover, on BChE from equine serum, the Selectivity ratio is on record as > 13.1 and the inhibition at 25 µg/mL turned out to be 70 ± 1%. Besides, the midpoint of inhibition against BChE from equine serum (mean ± SD of three experiments), the IC50, lay at 5.2 ± 0.4 µM. Also, on BChE, the “Mode of BChE inhibition” value is “mixed-type” and the Ki was 4.7 µM.
As to `COc1cc(O)cc2c1-c1ccc(Oc3c(O)cc(OC)c4c3ccc3cc(O)ccc34)cc1CC2` [Compound 14, blestrin D], the inhibition at 25 µg/mL at AChE from electric eel came out at 6.8 ± 1.6%. Besides, the Selectivity ratio on BChE from equine serum is listed as > 6.8. The inhibition at 25 µg/mL on BChE from equine serum (25 μg/mL final concentration, mean ± SD of three experiments) was determined as 69 ± 2.5%. At BChE from equine serum (mean ± SD of three experiments), this molecule had an IC50 of 8.1 ± 0.5 µM. Moreover, on BChE, the “Mode of BChE inhibition” value is reported as “mixed-type” and the Ki is 10.9 µM.
On to `COc1cc(C2Oc3cc4c(c(OC)c3C2CO)-c2ccc(O)cc2CC4)ccc1O` (stereo not shown) [Compound 19, 9-(4′-hydroxy-3′-methoxyphenyl)-10-(hydroxymethyl)-11-methoxy-5,6,9, 10-tetrahydrophenanthro[2,3-b] furan-3-ol], for which the inhibition at 25 µg/mL on AChE from electric eel worked out at 3.3 ± 1.8%. Besides, at BChE from equine serum, the Selectivity ratio is > 1.7 and the inhibition at 25 µg/mL is 61.2 ± 1.3%. The same molecule gave a 50% inhibitory concentration (IC50) on BChE from equine serum (mean ± SD of three experiments) of 35.8 ± 9.2 µM.
Turning to `COc1cc(CCc2cccc(O)c2)cc(O)c1Cc1ccc(O)cc1` [Compound 5, 3,3′-dihydroxy-4-(4-hydroxybenzyl)-5-methoxybibenzyl], the inhibition at 25 µg/mL was 2.6 ± 2.8% on AChE from electric eel and 22.6 ± 2.1% at BChE from equine serum.
As to `COc1c(O)c(Cc2ccc(O)cc2)c2ccc3cc(O)ccc3c2c1OC` [Compound 13, bleformin B], on AChE from electric eel, the inhibition at 25 µg/mL was 9.9 ± 4.7%. On BChE from equine serum, the Selectivity ratio is recorded as > 4.0 and the inhibition at 25 µg/mL worked out at 75.7 ± 1.1%. The molecule further returned a concentration for half-maximal inhibition (IC50) on BChE from equine serum (mean ± SD of three experiments) of 16.7 ± 2.4 µM.
Regarding `COc1c(Cc2ccc(O)cc2)c(O)cc2c1-c1ccc(O)cc1CC2` [Compound 7, 3-(4-hydroxybenzyl)-4-methoxy-9,10-dihydrophenanthrene-2,7-diol], the inhibition at 25 µg/mL at AChE from electric eel was 9.6 ± 2.6%. In addition, on BChE from equine serum, the Selectivity ratio is given as > 2.1 and the inhibition at 25 µg/mL worked out at 65.7 ± 0.7%. Besides, on BChE from equine serum (mean ± SD of three experiments), the IC50 is 34 ± 1.4 µM.
Consider `COc1cc(O)cc(CCc2cccc(O)c2)c1Cc1ccc(O)cc1` [Compound 3, 3′,5-dihydroxy-2-(4-hydroxybenzyl)-3-methoxybibenzyl], for which the inhibition at 25 µg/mL on AChE from electric eel was 5 ± 1.5%; at BChE from equine serum, 51.3 ± 2%. At BChE from equine serum (mean ± SD of three experiments), the IC50 is 80.3 ± 5.2 µM.
On to `COc1cc([C@@H]2Oc3cc(OC)c4c(c3[C@H]2Cc2c(O)cc(OC)c3c2CCc2cc(O)ccc2-3)CCc2cc(O)ccc2-4)ccc1O` [Compound 20, Bletilol E], for which the inhibition at 25 µg/mL at AChE from electric eel turned out to be 5.1 ± 4%. On BChE from equine serum, the inhibition at 25 µg/mL turned out to be 8 ± 2.4% and the “BChE inhibition described in words” value was “weak inhibition potency”.
Consider `COc1cc(O)c(-c2c(O)cc(OC)c3c2CCc2cc(O)ccc2-3)c2c1-c1ccc(O)cc1CC2` [Compound 22, flavanthrin], for which the inhibition at 25 µg/mL on AChE from electric eel turned out to be 13.3 ± 2.9%. On BChE from equine serum, the Selectivity ratio is > 1.2, the inhibition at 25 µg/mL stood at 56.7 ± 2% and the “BChE inhibition described in words” value is reported as “moderate efficacy”. Moreover, the midpoint of inhibition at BChE from equine serum (mean ± SD of three experiments), the IC50, lay at 42.2 ± 5.1 µM.
Turning to `COc1cccc(CCc2cc(OC)cc(O)c2Cc2ccc(O)cc2)c1` [Compound 1, gymconopin D], on AChE from electric eel, the inhibition at 25 µg/mL was found to be 48.1 ± 6.3%. At BChE from equine serum, the Selectivity ratio is given as > 1.7 and the inhibition at 25 µg/mL was found to be 66.2 ± 3.4%. The molecule further gave a 50% inhibitory concentration (IC50) at BChE from equine serum (mean ± SD of three experiments) of 40.5 ± 5.6 µM.
Turning to `COc1cc(O)c2c(c1Cc1ccc(O)cc1)CCc1cc(O)ccc1-2` [Compound 9, shancidin], the inhibition at 25 µg/mL at AChE from electric eel was determined as 15.2 ± 3.6%. In addition, on BChE from equine serum, the Selectivity ratio is recorded as > 4.3 and the inhibition at 25 µg/mL came out at 72.8 ± 3.4%. Inhibition against BChE from equine serum (mean ± SD of three experiments) was half-maximal at 16.7 ± 2 µM (IC50).
For the molecule `COc1ccc2c3c1O[C@H]1C[C@@H](O)C=C[C@@]31CCN(C)C2` [Galantamine, reference compound], the inhibition at 25 µg/mL on BChE from equine serum worked out at 64.2 ± 0.6%.
Turning to `COc1cc(O)c(Cc2ccc(O)cc2)c2ccc3cc(O)ccc3c12` [Compound 10, 1-[(4-hydroxyphenyl)methyl]-4-methoxy-2,7-phenanthrenediol], the inhibition at 25 µg/mL at AChE from electric eel was 19.1 ± 3.8%. In addition, on BChE from equine serum, the Selectivity ratio is given as > 34.7 and the inhibition at 25 µg/mL is 96.6 ± 1.2%. The same molecule returned a 50% inhibitory concentration (IC50) against BChE from equine serum (mean ± SD of three experiments) of 2.1 ± 0.3 µM. On BChE, the “Mode of BChE inhibition” value was “non-competitive” and the Ki is 5.4 µM.
